Drawing on PubChem BioAssay AID602356 (Sanford-Burnham Center for Chemical Genomics, 2012), this text covers EC50 for 84 compounds.

In general, EC50 refers to the concentration giving half of the maximal effect.

Values joined by “and” are separate entries in the source; they are usually repeats but may differ in a detail not shown here. Equal entries are not always repeated. Active and inactive are the calls of the source. No rule for the calls is given here. Some results are limits rather than exact numbers.

Neurotensin receptor type 1 (Homo sapiens), sequence (P30989 whole entry, looked up): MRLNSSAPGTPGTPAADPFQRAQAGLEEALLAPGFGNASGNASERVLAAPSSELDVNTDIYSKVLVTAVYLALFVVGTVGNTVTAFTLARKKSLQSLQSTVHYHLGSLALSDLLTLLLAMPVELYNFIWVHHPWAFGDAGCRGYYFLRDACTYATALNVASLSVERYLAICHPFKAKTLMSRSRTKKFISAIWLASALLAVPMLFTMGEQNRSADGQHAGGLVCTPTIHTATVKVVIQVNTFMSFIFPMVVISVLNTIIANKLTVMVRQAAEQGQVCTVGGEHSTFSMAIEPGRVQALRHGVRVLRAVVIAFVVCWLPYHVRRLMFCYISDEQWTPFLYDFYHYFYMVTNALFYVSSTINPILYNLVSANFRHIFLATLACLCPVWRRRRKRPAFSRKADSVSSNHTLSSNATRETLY

This test concerns the target Neurotensin receptor type 1 (Homo sapiens) (UniProt P30989). The test can be described thus: neurotensin receptor 1 activation – imaging, image-based, set 3, SAR follow-up (AID 602356). Conditions: NTR1 image-based agonist assay, cellular imaging.
For `COc1ccc2c3nnc(-c4ccc(C)cc4)c-3cn(Cc3ccc(F)cc3)c2c1`, the EC50 was 11.2 µM. The value for `Clc1ccc(-c2nnc3c4cc5c(cc4n(Cc4ccccc4)cc2-3)OCO5)cc1` was > 80 µM (inactive); that for `COc1ccc2c(c1)c1nnc(-c3ccc(F)cc3)c-1cn2Cc1ccccc1` was 9.24 µM; that for `COc1cc2c3nnc(-c4ccc(Cl)cc4)c-3cn(Cc3ccccc3)c2cc1OC` was 4.15 µM. Take `COc1ccccc1-c1nc(C(=O)N[C@@H](CC(C)C)C(=O)O)cn1-c1ccnc2ccccc12`: the EC50 was > 80 µM (inactive). `COc1cccc(OC)c1-c1nc(C(=O)N[C@@H](CC(C)C)C(=O)O)cn1-c1cccc2ccccc12`: the EC50 was 2.31 µM and 4.47 µM.

On to `COc1ccc(-c2nnc3c4ccccc4n(Cc4ccncc4)cc2-3)cc1`, for which the EC50 is > 80 µM (inactive). The value for `COc1cccc(OC)c1-c1nc(C(=O)O)cn1-c1ccncc1` was > 80 µM (inactive); that for `COc1cc2c3nnc(-c4ccc(C)c(C)c4)c-3cn(Cc3ccc(C)cc3)c2cc1OC` was 4.9 µM; that for `COc1cc2c3nnc(-c4ccc(F)cc4)c-3cn(CCc3ccccc3)c2cc1OC` was “inactive”.

On to `COc1ccc2c3nnc(-c4ccc(C)cc4)c-3cn(Cc3ccccc3)c2c1`, for which the EC50 was 15.8 µM. The value for `COc1cc2c3nnc(-c4ccc(F)cc4)c-3cn(Cc3ccncc3)c2cc1OC` was 18.4 µM; that for `COc1ccc(-c2nnc3c4ccccc4n(Cc4ccc(OC(F)(F)F)cc4)cc2-3)cc1` was “inactive”; that for `COc1cccc(OC)c1-c1nc(C(=O)N[C@@H](CC(C)C)C(=O)O)cn1-c1ccnc2cc(Cl)ccc12` was 2.01 µM and 4.14 µM. The value for `COc1ccc(-c2nnc3c4cc(OC)c(OC)cc4n(Cc4ccc(C)cc4)cc2-3)cc1` was 5.21 µM; that for `Cc1ccc(Cn2cc3c(-c4ccc(C)c(C)c4)nnc-3c3cc4c(cc32)OCO4)cc1` was 16.4 µM; that for `COc1cc2c3nnc(-c4ccc(C)c(C)c4)c-3cn(Cc3ccccc3)c2cc1OC` was 6.2 µM.

As for `COc1ccc(-c2nnc3c4ccccc4n(Cc4ccc(Cl)cc4)cc2-3)cc1`, the EC50 entry was “inactive”. For `CC(C)C[C@H](NC(=O)c1cn(-c2ccnc3ccccc23)c(-c2ccccc2)n1)C(=O)O`, the EC50 is > 80 µM (inactive). Regarding `COc1cc2c3nnc(-c4ccc(C)cc4)c-3cn(Cc3ccc(C)cc3)c2cc1OC`, the concentration for a half-maximal effect (EC50) was 6.82 µM. The result for `COc1cc2nc(C3CCCC3)nc(N3CCN(c4ccccc4OC)CC3)c2cc1OC` reads 5.79 µM.

Turning to `CCOc1ccc(-c2nnc3c4cc(OC)c(OC)cc4n(Cc4ccc(F)cc4)cc2-3)cc1`, the EC50 was 8.05 µM.

Consider `COc1cc2c3nnc(-c4ccc(F)cc4)c-3cn(CC3CC3)c2cc1OC`, for which the EC50 entry is “inactive”. On to `COc1ccc(-c2nnc3c4ccccc4n(CCc4ccccc4)cc2-3)cc1`, for which the EC50 result was “inactive”. The value for `COc1cccc(OC)c1-c1nc(C(=O)N[C@@H](CC(C)C)C(=O)O)cn1-c1ccnc2ccccc12` was 3.76 µM; that for `COc1cccc(OC)c1-c1nc(C(=O)N[C@@H](CC(C)C)C(=O)O)cn1-c1ccc(C)cc1` was > 80 µM (inactive); that for `COc1ccc(-c2nnc3c4ccccc4n(Cc4ccccc4)cc2-3)cc1` was “inactive”.

Turning to `Cc1ccc(Cn2cc3c(-c4ccc(C)cc4)nnc-3c3cc4c(cc32)OCO4)cc1`, the EC50 entry was “inactive”. Turning to `COc1ccc2nc(C3CCC3)nc(N3CCN(c4ccccc4OC)CC3)c2c1`, the EC50 was 10 µM.

As for `COc1ccccc1-c1nc(C(=O)N[C@@H](CC(C)C)C(=O)O)cn1-c1ccncc1`, the EC50 is > 80 µM (inactive). The value for `COc1cccc(OC)c1-c1nc(C(=O)N[C@H](CC(C)C)C(=O)O)cn1-c1ccnc2cc(Cl)ccc12` was 9.41 µM; that for `COc1cc2nc(C(C)C)nc(N3CCN(c4ccccc4OC)CC3)c2cc1OC` was 7.65 µM. For the compound `COc1cc2nc(C3CC3)nc(N3CCN(c4ccccc4OC)CC3)c2cc1OC`, the EC50 was 2.18 µM and 1.89 µM. The result for `COc1cccc(OC)c1-c1nc(C(=O)N[C@@H](CC(C)C)C(=O)O)cn1-c1ccncc1` reads “inactive”; that for `COc1ccc(Cn2cc3c(-c4ccc(F)cc4)nnc-3c3cc(OC)c(OC)cc32)cc1`, 8.11 µM; that for `CCOc1ccccc1N1CCN(c2nc(C3CC3)nc3cc(OC)c(OC)cc23)CC1`, 6.08 µM. The result for `COc1cc2c3nnc(-c4ccc(C)c(C)c4)c-3cn(Cc3ccc(F)cc3)c2cc1OC` reads 16.2 µM.

`COc1cc2nc(C3CCC3)nc(N3CCN(c4ccccc4F)CC3)c2cc1OC`: the EC50 was 17.7 µM. The value for `COc1cc2c3nnc(-c4ccc(F)cc4)c-3cn(Cc3ccc(C)cc3)c2cc1OC` was 6.9 µM and 6.79 µM; that for `Cc1ccc(-c2nnc3c4cc5c(cc4n(Cc4ccccc4)cc2-3)OCO5)cc1C` was 1.44 µM. Regarding `COc1cc2c3nnc(-c4ccccc4)c-3cn(Cc3ccccc3)c2cc1OC`, the EC50 was 19.9 µM. The result for `Fc1ccc(Cn2cc3c(-c4ccc(F)cc4)nnc-3c3cc4c(cc32)OCO4)cc1` reads 7.29 µM; that for `C=Cc1nc(N2CCN(c3ccccc3OC)CC2)c2cc(OC)c(OC)cc2n1`, 7.03 µM; that for `COc1cc2nc(C3CC3)nc(N3CCN(C(=O)c4ccccc4OC)CC3)c2cc1OC`, “inactive”. Take `Cc1ccc(-c2nnc3c4cc5c(cc4n(Cc4ccccc4)cc2-3)OCO5)cc1`: the EC50 entry was “inactive”. On to `COc1cc2c3nnc(-c4ccc(F)cc4)c-3cn(Cc3ccc(C)cc3C)c2cc1OC`, for which the EC50 was 5.82 µM. The value for `Cc1ccc(-c2nnc3c4cc5c(cc4n(Cc4ccc(F)cc4)cc2-3)OCO5)cc1` was 9.43 µM. The value for `COc1cc2nc(-c3ccccc3)nc(N3CCN(c4ccccc4F)CC3)c2cc1OC` was > 80 µM (inactive). With `COc1ccccc1N1CCN(c2nc(C3CCC3)nc3ccccc23)CC1`, the EC50 result was “inactive”. The value for `Cc1ccc(-c2nnc3c4cc5c(cc4n(Cc4ccc(F)cc4)cc2-3)OCO5)cc1C` was “inactive”; that for `COc1cc2nc(C3CCC3)nc(N3CCN(c4ccccc4)CC3)c2cc1OC` was 12.1 µM; that for `Cc1ccc(Cn2cc3c(-c4ccc(Cl)cc4)nnc-3c3cc4c(cc32)OCO4)cc1` was “inactive”. The value for `COc1cc2nc(CCN(C)C)nc(N3CCN(c4ccccc4OC)CC3)c2cc1OC` was > 80 µM (inactive).

With `Fc1ccc(-c2nnc3c4cc5c(cc4n(Cc4ccccc4)cc2-3)OCO5)cc1`, the concentration for a half-maximal effect (EC50) is 10.9 µM. With `COc1cc2c3nnc(-c4ccc(Cl)cc4)c-3cn(Cc3ccc(C)cc3)c2cc1OC`, the EC50 is 18.1 µM. For `COc1ccc(Cn2cc3c(-c4ccc(OC)cc4)nnc-3c3ccccc32)cc1`, the EC50 was > 80 µM (inactive).

Regarding `COc1ccc2c(N3CCN(c4ccccc4OC)CC3)nc(C3CCC3)nc2c1`, the EC50 entry is “inactive”. The result for `COc1cccc(OC)c1-c1cc(C(=O)NC2(C(=O)O)C3CC4CC(C3)CC2C4)nn1-c1ccnc2cc(Cl)ccc12` (centres undefined) reads “inactive”; that for `COc1ccccc1-c1cc(C(=O)N[C@@H](CC(C)C)C(=O)OC(C)(C)C)nn1-c1ccnc2cc(Cl)ccc12`, 5.01 µM.

`COc1cc2c3nnc(-c4ccc(C)cc4)c-3cn(Cc3ccc(F)cc3)c2cc1OC`: the half-maximal effective concentration (EC50) is 6.4 µM. The result for `Cc1ccc(Cn2cc3c(-c4ccc(F)cc4)nnc-3c3ccccc32)cc1` reads > 80 µM (inactive). The result for `CCOc1cc2c(N3CCN(c4ccccc4OC)CC3)nc(-c3ccc(OC)c(OC)c3)nc2cc1OC` reads > 80 µM (inactive). The value for `COc1cc2ncnc(N3CCN(c4ccccc4OC)CC3)c2cc1OC` was > 80 µM (inactive); that for `c1ccc(Cn2cc3c(-c4ccccc4)nnc-3c3ccccc32)cc1` was “inactive”; that for `COc1cc2nc(-c3ccccc3)nc(N3CCN(c4ccccc4)CC3)c2cc1OC` was > 80 µM (inactive). For `COc1ccccc1-c1nc(C(=O)N[C@@H](CC(C)C)C(=O)O)cn1-c1ccnc2cc(Cl)ccc12`, the EC50 result is “inactive”.

Regarding `COc1cccc(N2CCN(c3nc(C4CCC4)nc4cc(OC)c(OC)cc34)CC2)c1`, the concentration for a half-maximal effect (EC50) was 17.2 µM. The result for `COc1cc2nc(CCN3CCN(c4ccccc4OC)CC3)nc(N3CCN(c4ccccc4OC)CC3)c2cc1OC` reads “inactive”; that for `COc1cc2c3nnc(-c4ccc(C)cc4)c-3cn(Cc3ccccc3)c2cc1OC`, “inactive”. The result for `COc1ccccc1N1CCN(c2nc(C3CCC3)nc3cc4c(cc23)OCO4)CC1` reads “inactive”. The value for `Fc1ccc(Cn2cc3c(-c4ccc(Cl)cc4)nnc-3c3cc4c(cc32)OCO4)cc1` was 9.12 µM. As to `COc1cc2nc(C3CCC3)nc(N3CCN(c4ccccn4)CC3)c2cc1OC`, the EC50 result was “inactive”. Take `COc1cc2c3nnc(-c4ccc(F)cc4)c-3cn(Cc3ccccc3C)c2cc1OC`: the 50% effective concentration (EC50) is 3.95 µM.

On to `COc1cccc(OC)c1-c1nc(C(=O)NC2(C(=O)O)C3CC4CC(C3)CC2C4)cn1-c1ccnc2cc(Cl)ccc12` (centres undefined), for which the EC50 entry is “inactive”.

Regarding `COc1cc2nc(CC(C)C)nc(N3CCN(c4ccccc4OC)CC3)c2cc1OC`, the EC50 was 15.1 µM. On to `COc1cc2nc(C3CCC3)nc(N3CCN(c4c(C)cccc4C)CC3)c2cc1OC`, for which the EC50 result was “inactive”. The value for `COc1cc2nc(C3CC3)nc(N3CCN(C(=O)c4ccccc4)CC3)c2cc1OC` was “inactive”; that for `COc1cc2nc(C3CC3)nc(N3CCN(C(=O)OC(C)(C)C)CC3)c2cc1OC` was “inactive”. The result for `CC(C)C[C@H](NC(=O)c1cn(-c2ccnc3cc(Cl)ccc23)c(-c2ccccc2)n1)C(=O)O` reads “inactive”; that for `COc1ccc(N2CCN(c3nc(C4CCC4)nc4cc(OC)c(OC)cc34)CC2)c(OC)c1`, “inactive”.

For the compound `COc1ccc(-c2nnc3c4ccccc4n(CC4CC4)cc2-3)cc1`, the EC50 entry was “inactive”. The result for `COc1cccc(OC)c1-c1cc(C(=O)O)nn1-c1ccnc2cc(Cl)ccc12` reads > 80 µM (inactive); that for `COc1cccc(OC)c1-c1cc(C(=O)N[C@@H](CC(C)C)C(=O)OC(C)(C)C)nn1-c1ccnc2cc(Cl)ccc12`, 1.35 µM.

As for `COc1ccc2c3nnc(-c4ccc(C)cc4)c-3cn(Cc3ccc(C)cc3)c2c1`, the EC50 was 11.2 µM.
